# Data taken from ChEMBL document CHEMBL4725353, “Discovery of Pyrido[2,3-b]indole Derivatives with Gram-Negative Activity Targeting Both DNA Gyrase and Topoisomerase IV” (J Med Chem, 2020).
# Key:
# in vitro = details: mouse, liver microsomes
# Description: Intrinsic clearance in mouse liver microsomes preincubated for 10 mins followed by NADPH regenerating system addition and measured up to 30 mins by LC/MS-MS analysis
# physchem = details: PBS, pH 6.5
# Description: Solubility of compound in PBS at pH 6.5 incubated for over night by HPLC-UV based lyophilization solubility assay
# Escherichia coli [1] = assay: microbe, parasite or virus in culture; details: ATCC 29213
# Description: Antibacterial activity against Escherichia coli ATCC 29213 assessed as reduction in microbial growth preincubated for 20 to 24 hrs followed by subculture in absence of compound and measured on day 4 CLSI based broth microdilution susceptibility method
# Escherichia coli [2] = assay: microbe, parasite or virus in culture; details: ATCC 25922
# Description: Antibacterial activity against Escherichia coli ATCC 25922 assessed as reduction in microbial growth preincubated for 20 to 24 hrs followed by subculture in absence of compound and measured on day 4 CLSI based broth microdilution susceptibility method
# [3] = Distribution coefficient between octanol and buffer, log D of the compound in pH 7.4 buffer by CAMDIS assay; format: physicochemical
compound,measurement,setting,value
CCNc1cc(F)cc2c1[nH]c1ncc(-c3cnc(OC)nc3)c(-n3ccc(C(F)(F)F)n3)c12,CLint scaled at 0.5 h,in vitro,1.21 L/h/kg
same,solubility,physchem,< 1 µg/mL
same,MIC,Escherichia coli [1],< 0.016 mg/L
same,MIC,Escherichia coli [2],0.5 mg/L
CCNc1cc(F)cc2c1[nH]c1ncc(-c3cncc(CC(N)=O)c3)c(-n3ccc(C(F)(F)F)n3)c12,logD,[3],3.1
same,MIC,Escherichia coli [1],< 0.125 mg/L
same,MIC,Escherichia coli [2],1 mg/L
CCNc1cc(F)cc2c1[nH]c1ncc(-c3cncc(C(=N)NC)c3)c(-n3ccc(C(F)(F)F)n3)c12,logD,[3],2.28
same,MIC,Escherichia coli [1],0.5 mg/L
same,MIC,Escherichia coli [2],8 mg/L
CCNc1cc(F)cc2c1[nH]c1ncc(-c3cncc(C(=O)NC)c3)c(-n3ccc(C(F)(F)F)n3)c12,logD,[3],3.42
same,MIC,Escherichia coli [1],< 0.25 mg/L
same,MIC,Escherichia coli [2],0.5 mg/L
CCNc1cc(F)cc2c1[nH]c1ncc(-c3cncc(C#N)c3)c(-n3ccc(C#N)n3)c12,solubility,physchem,< 1 µg/mL
same,MIC,Escherichia coli [1],< 0.016 mg/L
same,MIC,Escherichia coli [2],0.125 mg/L
CCNc1cc(F)cc2c1[nH]c1ncc(-c3cnc(C(=O)O)nc3)c(-n3ccc(C(F)(F)F)n3)c12,MIC,Escherichia coli [1],4 mg/L
same,MIC,Escherichia coli [2],16 mg/L
CCNc1cc(F)cc2c1[nH]c1ncc(-c3cncc(C#N)c3)c(-n3cnc(C(F)(F)F)c3)c12,MIC,Escherichia coli [1],0.25 mg/L
same,MIC,Escherichia coli [2],> 16 mg/L
CCNc1cc(F)cc2c1[nH]c1ncc(-c3cncc(C#N)c3)c(-n3ccc(C(F)F)n3)c12,solubility,physchem,< 1 µg/mL
same,MIC,Escherichia coli [1],< 0.25 mg/L
same,MIC,Escherichia coli [2],1 mg/L
CCNc1cc(F)cc2c1[nH]c1ncc(-c3cnc(NCC4(C(=O)O)CC4)nc3)c(-n3ccc(C(F)(F)F)n3)c12,solubility,physchem,133 µg/mL
same,MIC,Escherichia coli [1],< 0.016 mg/L
same,MIC,Escherichia coli [2],4 mg/L
CCNc1cc(F)cc2c1[nH]c1ncc(-c3cnc(C4(C(=O)O)CC4)nc3)c(-n3ccc(C(F)(F)F)n3)c12,CLint scaled at 0.5 h,in vitro,2.63 L/h/kg
same,solubility,physchem,67 µg/mL
same,MIC,Escherichia coli [1],< 0.016 mg/L
same,MIC,Escherichia coli [2],0.375 mg/L
CCNc1cc(F)cc2c1[nH]c1ncc(-c3cncc(C#N)c3)c(-n3cc(C(=O)OCC)c(C(F)(F)F)n3)c12,MIC,Escherichia coli [2],2 mg/L
CCNc1cc(F)cc2c1[nH]c1ncc(-c3cnc([C@H](C)O)nc3)c(-n3ccc(C(F)(F)F)n3)c12,CLint scaled at 0.5 h,in vitro,3.17 L/h/kg
same,solubility,physchem,< 0.2 µg/mL
same,MIC,Escherichia coli [1],< 0.25 mg/L
same,MIC,Escherichia coli [2],0.5 mg/L
CCNc1cc(F)cc2c1[nH]c1ncc(-c3cncc(C#N)c3)c(-n3ccc(C(C)(C)C)n3)c12,solubility,physchem,< 0.3 µg/mL
same,MIC,Escherichia coli [1],< 0.25 mg/L
same,MIC,Escherichia coli [2],> 16 mg/L
CCNc1cc(F)cc2c1[nH]c1ncc(-c3cncc(C#N)c3)c(-n3cc(C(F)(F)F)cn3)c12,solubility,physchem,< 1 µg/mL
same,MIC,Escherichia coli [1],< 0.016 mg/L
same,MIC,Escherichia coli [2],1 mg/L
CCNc1cc(F)cc2c1[nH]c1ncc(-c3cncc(C#N)c3)c(-n3ccc(CC)n3)c12,solubility,physchem,< 0.3 µg/mL
same,MIC,Escherichia coli [1],< 0.25 mg/L
same,MIC,Escherichia coli [2],1 mg/L
CCNc1cc(F)cc2c1[nH]c1ncc(-c3cncc(C#N)c3)c(-n3ccc(C(=O)O)n3)c12,MIC,Escherichia coli [1],> 16 mg/L
same,MIC,Escherichia coli [2],> 16 mg/L
CCNc1cc(F)cc2c1[nH]c1ncc(-c3cncc(C#N)c3)c(-c3cccc(C(F)(F)F)c3)c12,MIC,Escherichia coli [1],0.063 mg/L
same,MIC,Escherichia coli [2],> 16 mg/L
CCNc1cc(F)cc2c1[nH]c1ncc(-c3cncc(C#N)c3)c(-c3nc(C(F)(F)F)cs3)c12,solubility,physchem,< 1 µg/mL
same,MIC,Escherichia coli [1],< 0.016 mg/L
same,MIC,Escherichia coli [2],0.5 mg/L
CCNc1cc(F)cc2c1[nH]c1ncc(-c3cncc(C#N)c3)c(-n3ccc(C(C)C)n3)c12,solubility,physchem,< 0.7 µg/mL
same,MIC,Escherichia coli [1],< 0.25 mg/L
same,MIC,Escherichia coli [2],> 16 mg/L
CCNc1cc(F)cc2c1[nH]c1ncc(-c3cnc(NC)nc3)c(-n3ccc(C(F)(F)F)n3)c12,CLint scaled at 0.5 h,in vitro,3.19 L/h/kg
same,solubility,physchem,< 1 µg/mL
same,MIC,Escherichia coli [1],< 0.016 mg/L
same,MIC,Escherichia coli [2],0.25 mg/L
CCNc1cc(F)cc2c1[nH]c1ncc(-c3cncc(Cc4ncc[nH]4)c3)c(-n3ccc(C(F)(F)F)n3)c12,logD,[3],3.62
same,MIC,Escherichia coli [1],< 0.057 mg/L
same,MIC,Escherichia coli [2],2.83 mg/L
CCNc1cc(F)cc2c1[nH]c1ncc(-c3cncc(Cc4ncco4)c3)c(-n3ccc(C(F)(F)F)n3)c12,logD,[3],3.66
same,MIC,Escherichia coli [1],< 0.056 mg/L
same,MIC,Escherichia coli [2],0.71 mg/L
CCNc1cc(F)cc2c1[nH]c1ncc(-c3cncc(C#N)c3)c(-n3ccc(C)n3)c12,solubility,physchem,< 1 µg/mL
same,MIC,Escherichia coli [1],< 0.25 mg/L
same,MIC,Escherichia coli [2],2 mg/L
CCNc1cc(F)cc2c1[nH]c1ncc(-c3cnc(C(N)=O)nc3)c(-n3ccc(C(F)(F)F)n3)c12,CLint scaled at 0.5 h,in vitro,3.33 L/h/kg
same,solubility,physchem,< 0.2 µg/mL
same,MIC,Escherichia coli [1],< 0.25 mg/L
same,MIC,Escherichia coli [2],< 0.25 mg/L
CCNc1cc(F)cc2c1[nH]c1ncc(-c3cncc(C#N)c3)c(-n3cc(CO)c(C(F)(F)F)n3)c12,MIC,Escherichia coli [2],4 mg/L
CCNc1cc(F)cc2c1[nH]c1ncc(-c3cncc(C#N)c3)c(-n3cc(C(=O)O)c(C(F)(F)F)n3)c12,MIC,Escherichia coli [2],> 16 mg/L
CCNc1cc(F)cc2c1[nH]c1ncc(-c3cncc(C#N)c3)c(-n3nc(C(F)(F)F)cc3CO)c12,MIC,Escherichia coli [2],> 16 mg/L
CCNc1cc(F)cc2c1[nH]c1ncc(-c3cnc(OCC(C)(C)C(=O)O)nc3)c(-n3ccc(C(F)(F)F)n3)c12,CLint scaled at 0.5 h,in vitro,2.61 L/h/kg
same,solubility,physchem,< 1 µg/mL
same,MIC,Escherichia coli [1],< 0.016 mg/L
same,MIC,Escherichia coli [2],2 mg/L
CCNc1cc(F)cc2c1[nH]c1ncc(-c3cnc(OCC)nc3)c(-n3ccc(C(F)(F)F)n3)c12,CLint scaled at 0.5 h,in vitro,2.22 L/h/kg
same,solubility,physchem,< 0.3 µg/mL
same,MIC,Escherichia coli [1],< 0.016 mg/L
same,MIC,Escherichia coli [2],2 mg/L
CCNc1cc(F)cc2c1[nH]c1ncc(-c3cncc(C#N)c3)c(-n3ccc(CN)n3)c12,MIC,Escherichia coli [1],2 mg/L
same,MIC,Escherichia coli [2],16 mg/L
CCNc1cc(F)cc2c1[nH]c1ncc(-c3cnc(C)nc3)c(-n3ccc(C(F)(F)F)n3)c12,MIC,Escherichia coli [1],< 0.016 mg/L
same,MIC,Escherichia coli [2],0.5 mg/L
CCNc1cc(F)cc2c1[nH]c1ncc(-c3cncc(C#N)c3)c(-n3nc(C(F)(F)F)cc3C)c12,MIC,Escherichia coli [2],8 mg/L
CNc1cc(F)cc2c1[nH]c1ncc(-c3cnc(C4(C(=O)O)CC4)nc3)c(-n3ccc(C(F)(F)F)n3)c12,CLint scaled at 0.5 h,in vitro,1.37 L/h/kg
same,solubility,physchem,148 µg/mL
same,MIC,Escherichia coli [1],< 0.016 mg/L
same,MIC,Escherichia coli [2],0.75 mg/L
CCNc1cc(F)cc2c1[nH]c1ncc(-c3cncc(C#N)c3)c(-n3cc(C(N)=O)c(C(F)(F)F)n3)c12,MIC,Escherichia coli [2],> 16 mg/L
CCNc1cc(F)cc2c1[nH]c1ncc(-c3cncc(C#N)c3)c(-n3ncc4c3CNCC4)c12,CLint scaled at 0.5 h,in vitro,1.21 L/h/kg
same,MIC,Escherichia coli [2],2 mg/L
CCNc1cc(F)cc2c1[nH]c1ncc(-c3cnc(C(=O)NC)nc3)c(-n3ccc(C(F)(F)F)n3)c12,MIC,Escherichia coli [1],< 0.25 mg/L
same,MIC,Escherichia coli [2],< 0.25 mg/L
CCNc1cc(F)cc2c1[nH]c1ncc(-c3cnc(C(C)(C)O)nc3)c(-n3ccc(C(F)(F)F)n3)c12,CLint scaled at 0.5 h,in vitro,3.52 L/h/kg
same,solubility,physchem,< 1 µg/mL
same,MIC,Escherichia coli [1],< 0.25 mg/L
same,MIC,Escherichia coli [2],1 mg/L
CCNc1cc(F)cc2c1[nH]c1ncc(-c3cnc(CC(=O)O)nc3)c(-n3ccc(C(F)(F)F)n3)c12,CLint scaled at 0.5 h,in vitro,2.64 L/h/kg
same,solubility,physchem,9 µg/mL
same,MIC,Escherichia coli [1],< 0.016 mg/L
same,MIC,Escherichia coli [2],1 mg/L
CCNc1cc(F)cc2c1[nH]c1ncc(-c3cncc(C#N)c3)c(-n3ncc4c3CCNC4)c12,CLint scaled at 0.5 h,in vitro,3.13 L/h/kg
same,solubility,physchem,200 µg/mL
same,MIC,Escherichia coli [2],4 mg/L
CCNc1cc(F)cc2c1[nH]c1ncc(-c3cncc(C#N)c3)c(-n3cc4c(n3)CNC4)c12,MIC,Escherichia coli [2],4 mg/L
CCNc1cc(F)cc2c1[nH]c1ncc(-c3cnc(N4CCOCC4)nc3)c(-n3ccc(C(F)(F)F)n3)c12,CLint scaled at 0.5 h,in vitro,1.45 L/h/kg
same,solubility,physchem,< 1 µg/mL
same,MIC,Escherichia coli [1],< 0.016 mg/L
same,MIC,Escherichia coli [2],1 mg/L
CCNc1cc(F)cc2c1[nH]c1ncc(-c3cnc([C@@H](C)O)nc3)c(-n3ccc(C(F)(F)F)n3)c12,CLint scaled at 0.5 h,in vitro,3.43 L/h/kg
same,solubility,physchem,< 1 µg/mL
same,MIC,Escherichia coli [1],< 0.25 mg/L
same,MIC,Escherichia coli [2],0.5 mg/L
CCNc1cc(F)cc2c1[nH]c1ncc(-c3cncc(C#N)c3)c(-n3nc(C(F)F)c4c3CNC4)c12,solubility,physchem,< 1 µg/mL
same,MIC,Escherichia coli [2],2 mg/L
